Reference: ChEMBL document CHEMBL1155786, “Synthesis of 3'-deoxy-3'-C-methyl nucleoside derivatives” (Bioorg Med Chem, 2008)
The source made the active and inactive calls. The rule behind the calls is not given here.

Tested on: Human immunodeficiency virus
Assay: Antiviral activity against HIV at 100 uM
Assay type: functional, organism-based

## C[C@H]1[C@@H](O)[C@H](n2cnc(C(N)=O)c2N)O[C@@H]1CO
  Activity: inactive

## C[C@H]1[C@@H](O)[C@H](n2cnc(C(N)=O)n2)O[C@@H]1CO
  Activity: inactive

## C[C@H]1[C@@H](O)[C@H](n2cnc(C(N)=O)n2)O[C@@H]1COC(=O)c1ccccc1
  Activity: inactive

## Nc1ccn([C@H]2C[C@H](O)[C@@H](CO)O2)c(=O)n1
  Activity: inactive

## C[C@H]1C[C@H](n2cnc3c(=O)[nH]c(N)nc32)O[C@@H]1CO
  Activity: inactive

## Cc1cn([C@H]2C[C@H](C)[C@@H](CO)O2)c(=O)[nH]c1=O
  Activity: inactive

## C[C@H]1C[C@H](n2cnc3c(N)ncnc32)O[C@@H]1CO
  Activity: inactive

## C[C@H]1C[C@H](n2cnc(C(N)=O)n2)O[C@@H]1COC(=O)c1ccccc1
  Activity: inactive

## C[C@H]1C[C@H](n2ccc(=O)[nH]c2=O)O[C@@H]1CO
  Activity: inactive

## C[C@H]1C[C@H](n2cnc(C(N)=O)n2)O[C@@H]1CO
  Activity: inactive
